In US6201025A, “N-aralkylaminotetralins as ligands for the neuropeptide Y Y5 receptor” (Ortho-McNeil Pharmaceutical, Inc., priority 1999, dated 2001):
Counter-ions that a name gives are not always drawn. Like-named read-outs stand apart in the source and are kept apart here.

Biological target: T1, human neuropeptide Y5 receptor (Homo sapiens, UniProt Q15761)
T1 construct: expressed in transfected cells; cell membranes
T1 sequence (Q15761 1-445): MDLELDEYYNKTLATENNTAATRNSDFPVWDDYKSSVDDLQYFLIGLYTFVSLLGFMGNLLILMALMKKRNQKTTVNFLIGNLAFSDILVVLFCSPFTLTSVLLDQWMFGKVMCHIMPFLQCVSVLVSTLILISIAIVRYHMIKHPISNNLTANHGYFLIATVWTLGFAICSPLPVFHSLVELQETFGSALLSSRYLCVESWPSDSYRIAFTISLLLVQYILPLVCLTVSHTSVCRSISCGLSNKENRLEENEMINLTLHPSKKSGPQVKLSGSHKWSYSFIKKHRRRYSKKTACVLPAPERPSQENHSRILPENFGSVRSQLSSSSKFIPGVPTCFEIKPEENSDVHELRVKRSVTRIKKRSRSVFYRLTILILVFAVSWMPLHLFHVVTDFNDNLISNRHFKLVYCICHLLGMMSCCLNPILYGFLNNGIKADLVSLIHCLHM
Experiment: NPY5 HTS Centrifugation Assay: competition of 125I-PYY binding to membranes of NPY5-transfected HEK293 cells
Settings: for inhibition at 3 µM: read-out: % Inhibition of 125I-PYY Binding @ 3 uM; for inhibition at 30 µM: read-out: % Inhibition of 125I-PYY Binding @ 30 uM
Description: The compounds described in this invention were evaluated for binding to the human neuropeptide Y5 receptor.
Stably transfected cells served as the source for the membranes for the NPY5 receptor binding assay.
NPY5-transfected HEK293 cells were grown to confluence in 150 cm^2 culture dishes. […] Cells were then incubated in phosphate-buffered saline without Calcium and without Magnesium, supplemented with 2 mM EDTA. Cells were incubated for 10 minutes at room temperature and the cells were collected by repetitive pipeting. Cells were formed into pellets and then frozen at -80° C. until needed. Frozen pellets were homogenized with a polytron at full speed for 12 seconds in a homogenization buffer (20 mM Tris HCl, 5 mM EDTA, pH 7.4). Homogenates were centrifuged for 5 minutes at 4° C. at 200 g. Supernatants were transferred to corex tubes and centrifuged for 25 minutes at 28,000 g. Pellets were re-suspended in Binding (20 mM HEPES, 10 mM NaCl, 0.22 mM KH2 PO4, 1.3 mM CaCl2, 0.8 mM MgSO4, pH 7.4). Membranes were kept on ice until use.
Compounds to be tested were prepared as 10x stocks in binding buffer and added first to assay tubes (RIA vials, Sarstedt). […] To each tube is added 100 μL of membranes and the mixture is agitated by pipeting 2 times. Samples are incubated for 1 hr at room temperature. Aluminum cast plates (Sarstedt) containing the vials are then centrifuged 10 minutes at 3200 rpm in a Sorvall RT6000. Supernatant is then aspirated. To each vial 400 μL PBS is added and this is then aspirated again. Vials are then put in carrier polypropylene 12×75 tube and counted in gamma counter (Packard). Non-specific binding is determined in the presence of 300 nM NPY.

[1] = 3 uM, 80 pM 125I-PYY, human NPY Y5 receptor, 1 hr room temperature
[2] = 30 uM, 80 pM 125I-PYY, human NPY Y5 receptor, 1 hr room temperature

| Structure (SMILES) | inhibition at 3 µM | inhibition at 3 µM [1] | inhibition at 30 µM [2] | inhibition at 30 µM |
| --- | --- | --- | --- | --- |
| COc1ccc2c(c1)[C@@H](Cc1ccccc1)[C@H](NCCc1c[nH]c3ccccc13)CC2 (racemic) [Compound 19, rac-trans-1-(Phenylmethyl)-7-methoxy-N-(2(3-indolyl)ethyl)-1,2,3,4-tetrahydro-2-naphthalenamine monooxalate] | 49% |  |  |  |
| COc1ccc(CCN[C@H]2CCc3ccccc3[C@H]2Cc2cccnc2)cc1OC (relative stereo) [Compound 28, rac-cis-1-(3-pyridylmethyl)-N-(2-(3,4-dimethoxyphenyl)ethyl-1,2,3,4-tetrahydro-2-naphthalenaminemonohydrobromide] |  | 11% | 66% |  |
| COc1ccccc1CN[C@H]1CCc2ccccc2[C@H]1Cc1ccc2ccccc2c1 (racemic) [Compound 22, rac-cis-1-(2-Naphthylmethyl)-N-(2-methoxyphenylmethyl)-1,2,3,4-tetrahydro-2-naphthalenamine monohydrobromide] |  | 15% | 96% |  |
| COc1ccccc1CN[C@@H]1CCc2ccccc2[C@H]1Cc1ccc(F)cc1 (racemic) [Compound 13, rac-trans-1-(4-Fluorophenylmethyl)-N-(2-methoxyphenylmethyl)-1,2,3,4-tetrahydro-2-naphthalenamine monooxalate] | 16% |  |  | 89% |
| c1ccc2c(c1)CC[C@@H](NCCc1c[nH]c3ccccc13)[C@@H]2Cc1ccc2ccccc2c1 (racemic) [Compound 21, rac-trans-1-(2-Naphthylmethyl)-N-(2-(3-indolyl)ethyl)-1,2,3,4-tetrahydro-2-naphthalenamine monooxalate] | 33% |  |  | 103% |
| c1ccc2c(c1)CC[C@@H](NCCc1c[nH]c3ccccc13)[C@H]2Cc1ccc2ccccc2c1 (relative stereo) [Compound 20, rac-cis-1-(2-Naphthylmethyl)-N-(2-(3-indolyl)ethyl)-1,2,3,4-tetrahydro-2-naphthalenamine hemifumarate methanol] |  | 27% | 99% |  |
| Fc1ccc(CCN[C@@H]2CCc3ccccc3[C@@H]2Cc2ccccc2)cc1 (relative stereo) [Compound 14, monohydrobromide] |  | 13% | 98% |  |
| COc1ccc2c(c1)CC[C@@H](NCCc1ccc(OC)c(OC)c1)[C@H]2Cc1cccc2ccccc12 (relative stereo) [Compound 33] |  | 16% | 73% |  |
| COc1ccc2c(c1)[C@H](Cc1ccccc1)[C@H](NCCc1c[nH]c3ccccc13)CC2 (relative stereo) [Compound 18, rac-cis-1-(Phenylmethyl)-7-methoxy-N-(2-(3-indolyl)ethyl)-1,2,3,4-tetrahydro-2-naphthalenamine 0.8 fumarate 0.8 methanol 0.2 hydrate] |  | 61% | 104% |  |
| COc1ccc2c(c1)CC[C@@H](NCCc1ccc(Oc3ccccc3)cc1)[C@H]2Cc1ccccc1 (relative stereo) [Compound 36] |  | 35% | 87% |  |
| COc1ccc(C[C@H]2c3ccc(OC)cc3CC[C@H]2NCCc2ccc(OC)c(OC)c2)cc1 (relative stereo) [Compound 34] |  | 89% | 103% |  |
| COc1ccc2c(c1)CC[C@@H](NCCc1ccccc1)[C@H]2Cc1ccccc1 (relative stereo) [Compound 29] |  | 33% | 95% |  |
| COc1ccccc1CC(=O)N[C@@H]1CCc2ccccc2[C@@H]1Cc1ccccc1 (relative stereo) [Compound 23] |  | 12% | 47% |  |
| COc1ccc2c(c1)CC[C@@H](NCCc1ccc(Cl)c(Cl)c1)[C@H]2Cc1ccccc1 (relative stereo) [Compound 31] |  | 31% | 93% |  |
| Fc1ccc(C[C@@H]2c3ccccc3CC[C@@H]2NCCCc2ccccc2)cc1 (racemic) [Compound 24, rac-cis-1-(4-Fluorophenylmethyl)-N-(3-phenylpropyl)-1,2,3,4-tetrahydro-2-naphthalenamine monohydrobromide] |  | 19% | 102% |  |
| Fc1ccc(CN[C@H]2CCc3ccccc3[C@H]2Cc2ccccc2)cc1 (racemic) [Compound 9, rac-cis-1-(Phenylmethyl)-N-(4-fluorophenylmethyl)-1,2,3,4-tetrahydro-2-naphthalenamine monohydrobromide] |  | 20% | 97% |  |
| Fc1ccc(C[C@@H]2c3ccccc3CC[C@H]2NCCc2c[nH]c3ccccc23)cc1 (racemic) [Compound 16, rac-trans-1-(4-Fluorophenylmethyl)-N-(2-(3-indolyl)ethyl)-1,2,3,4-tetrahydro-2-naphthalenamine monooxalate] | 48% |  |  | 101% |
| COc1ccccc1CN[C@H]1CCc2ccccc2[C@H]1Cc1ccccc1 (racemic) [Compound 11, rac-cis-1-(Phenylmethyl)-N-(2-methoxyphenylmethyl)-1,2,3,4-tetrahydro-2-naphthalenamine] |  | 21% | 96% |  |
| COc1ccc2c(c1)CC[C@H](NCCc1ccc(OC)c(OC)c1)[C@@H]2Cc1ccccc1 (racemic) [Compound 6, rac-cis-1-(Phenylmethyl)-6-methoxy-N-(2-(3,4-dimethoxyphenyl)ethyl)-1,2,3,4-tetrahydro-2-naphthalenamine] |  | 86% | 101% |  |
| COc1ccccc1C(=O)N[C@@H]1CCc2ccccc2[C@@H]1Cc1ccccc1 (relative stereo) [Compound 17, rac-cis-1-(Phenylmethyl)-N-(2-methoxyphenyl-2-oxomethyl)-1,2,3,4-tetrahydro-2-naphthalenamine monohydrobromide] |  | 65% | 98% |  |
| COc1ccc(CCN[C@@H]2CCc3cc(OC)ccc3[C@@H]2Cc2ccccc2)cc1 (relative stereo) [Compound 30] |  | 62% | 99% |  |
| c1ccc(C[C@H]2c3ccccc3CC[C@H]2NCCc2c[nH]c3ccccc23)cc1 (relative stereo) [Compound 8] |  | 73% | 105% |  |
| COCCOc1ccc(CCN[C@H]2CCc3cc(OC)ccc3[C@H]2Cc2ccccc2)cc1 (relative stereo) [Compound 37] |  | 84% |  |  |
| COc1ccc(CCN[C@@H]2CCc3ccccc3[C@@H]2Cc2ccccc2)cc1OC (relative stereo) [Compound 35] |  | 47% | 99% |  |
| COc1ccccc1CN[C@H]1CCc2ccccc2[C@H]1Cc1ccc(F)cc1 (racemic) [Compound 12, rac-cis-1-(4-Fluorophenylmethyl)-N-(2-methoxyphenylmethyl)-1,2,3,4-tetrahydro-2-naphthalenamine monohydrobromide] |  | 16% | 98% |  |
| COc1ccc2c(c1)[C@@H](Cc1ccccc1)[C@@H](NCc1ccccc1OC)CC2 (racemic) [Compound 15, rac-cis-1-(Phenylmethyl)-7-methoxy-N-(2-methoxyphenylmethyl)-1,2,3,4-tetrahydro-2-naphthalenamine monohydrobromide] |  | 31% |  |  |
| COc1cccc(C[C@H]2c3ccc(OC)cc3CC[C@H]2NCCc2ccc(OC)c(OC)c2)c1 (relative stereo) [Compound 32] |  | 44% | 97% |  |
